Results from US11286247B2, “Acryloyl-containing nuclear transport regulators and uses thereof” (WIGEN BIOMEDICINE TECHNOLOGY (SHANGHAI) CO., LTD., priority 2019, dated 2022).
Values after ≈ are worked out from the molar mass of the structure shown. “Also recorded” adds a separate entry of the source. Read-outs that look alike come from different tables or passages of the source.

Legend:
[1] = In vivo pharmacokinetic analysis; conditions: ICR, mouse; mice, 5 mg/kg, oral gavage in 0.5% CMC, plasma
Description: A group of 9 ICR mice received 5 mg/kg of compound in 0.5% CMC by oral gavage. Blood was taken before treatment and at 5 min, 30 min, 1, 2, 4, 8, 12 and 24 h after treatment. 80 μL of whole blood was sampled (n=3 at each time point) via retro-orbital bleeds or cardiac puncture. The blood sample was collected into EDTA tubes and plasma were obtained by centrifugation at 1500-1600 rpm for 10 min at 4° C. After centrifugation, plasma sample was transferred to a new tube and stored at −60 to −90° C. for future analysis. Plasma concentration of (compounds was quantified by a method based on liquid chromatography coupled to tandem mass-spectrometric detections (LC/MS/MS). Noncompartmental pharmacokinetics parameters were calculated.

[2] = tested on: BxPC-3 cells (pancreatic cancer); test: Cancer cell proliferation assay, BxPC-3; format: cell-based; conditions: Homo sapiens
Description: (§1) BxPC-3 cells (pancreatic cancer) and MDA-MB-231 cells (breast cancer cells) were harvested from exponential phase cultures and seeded in 96-well plates at a cell density of 2×10^4 per well. After overnight attachment, compounds including positive controls were applied to cells at five concentrations and incubated for three days. During the last four hours of incubation, 20 μL of 5 mg/mL […] was added followed by the further addition of 100 μL DMSO. The plates were subsequently shook for 10 minutes to dissolve insoluble purple formazan. Absorbance (A) at a wavelength of 570 nm was quantified. Percentage of inhibition was used for the calculation of IC50 based on the bliss method.

BxPC-3 xenografts = test: Anti-tumor growth efficacy in pancreatic tumor BxPC3 nude mice xenograft model; format: in vivo; conditions: for Tumor volume D1 / average body weight D1: D1, first day of drug treatment; for Tumor volume D1 / average body weight D1 / TGI (tumor growth inhibition) / Tumor volume D21 / average body weight D21 / T/C / RTV (relative tumor volume, Vt/V0): oral: KPT-330 and 38 10 mg/kg tiw, 79 2.5 mg/kg tiw, 62 10 mg/kg qd; for TGI (tumor growth inhibition) / Tumor volume D21 / average body weight D21 / RTV (relative tumor volume, Vt/V0): D21; for T/C: TRTV/CRTV X 100; for RTV (relative tumor volume, Vt/V0): *P < 0.05 vs. vehicle group; for anti-tumor growth activity in BxPC-3 xenograft model (in words): Example 79 2.5 mg/kg, Example 38 10 mg/kg, compared to 10 mg/kg KPT-330
Description: BxPC-3 cells were cultured in 1640 medium containing 10% FBS at 37° C. and 5% CO2, 8×10^6 BxPc-3 cells were implanted subcutaneously into the left armpit of 40 nude mice. […] Compound 62 was administered orally everyday (qd) at 10 mg/kg, whereas KPT330 and compound 38 were given three times a week (tiw, Monday, Wednesday and Friday) at 10 mg/kg by oral gavage, and compound 79 were given three times a week (tiw, Monday, Wednesday and Friday) at 2.5 mg/kg by oral gavage. Tumor volume and body weight were measured every other day. Mice were sacrificed on day 21, and tumor and terminal body weight were recorded. The relative tumor volume, percent treatment/control values and tumor growth inhibition were calculated and statistics was performed.

[3] = tested on: MDA-MB-231 cells (breast cancer cells); test: Cancer cell proliferation assay, MDA-MB-231; format: cell-based; conditions: Homo sapiens
Description: as §1

Aqueous solubility assay = format: physicochemical; conditions: thermodynamic from solid, HPLC
Description: 10-30 mg of compounds were dissolved in water and an HCl solution at pH1.2 respectively, and then were continuously shook for three days, followed by centrifugation at 10000 rpm/minute for five minutes. A 2 mL aliquot of supernatant was removed and diluted to 50 mL to prepare a sample solution. A control solution was prepared by dissolving 2.5 mg compounds in methanol, which was subsequently diluted with water to a final volume of 50 mL. 20 μL of control and sample solutions were injected into HPLC. The area under the curve (A) of the sample solution was compared with that of the control solution and used for determination of the concentration. Solubility was calculated by the formula below. Solubility (mg/mL)=c(control)*25*A(sample)/A(control) • C (control): concentration of the control solution • A (sample): area under the curve of the sample solution • A (control): area under the curve of the control solution

CRM1 = target: T1, CRM1 (Homo sapiens, UniProt O14980); test: Rev-GFP nuclear export assay; format: cell-based; conditions: U2OS cells expressing Rev-GFP, 1 hour incubation, nuclear retention of Rev-GFP
T1 construct: The nuclear localization of Rev protein depends on CRM1; endogenous in cells; host or cells: U2OS cells stably or transiently expressing Rev-GFP (reporter cargo)
Description: The Rev protein from HIV contains nuclear export sequence (NES) at its C terminus and nuclear localization sequence (NLS) at its N-terminus. The nuclear localization of Rev protein depends on CRM1. U2OS cells expressing Rev protein fused with GFP (Rev-GFP) were plated in black 384 plates with clear bottom one day prior to treatment. Compounds were serially diluted 2-fold from 40 μM with DMEM in 384 plates, and then incubated with U2OS cells for an hour. Cells were fixed with 3.7% formaldehyde afterwards and nuclei were stained with Hoechst33258. The nuclear retention of Rev-GFP was examined, and IC50 was calculated.

[4] = BXPC-3, 72 h, three days incubation, absorbance 570 nm, read-out: IC50 (μM) BxPC-3
[5] = MDA-MB-231, 72 h, three days incubation, absorbance 570 nm, read-out: IC50 (μM) MDA-MB-231
[6] = simulated gastric fluid, HCl solution of pH 1.2, shaken three days, read-out: Solubility, HCl solution of pH 1.2
[7] = water, shaken three days, read-out: Solubility, Water

T1 sequence (O14980 whole entry): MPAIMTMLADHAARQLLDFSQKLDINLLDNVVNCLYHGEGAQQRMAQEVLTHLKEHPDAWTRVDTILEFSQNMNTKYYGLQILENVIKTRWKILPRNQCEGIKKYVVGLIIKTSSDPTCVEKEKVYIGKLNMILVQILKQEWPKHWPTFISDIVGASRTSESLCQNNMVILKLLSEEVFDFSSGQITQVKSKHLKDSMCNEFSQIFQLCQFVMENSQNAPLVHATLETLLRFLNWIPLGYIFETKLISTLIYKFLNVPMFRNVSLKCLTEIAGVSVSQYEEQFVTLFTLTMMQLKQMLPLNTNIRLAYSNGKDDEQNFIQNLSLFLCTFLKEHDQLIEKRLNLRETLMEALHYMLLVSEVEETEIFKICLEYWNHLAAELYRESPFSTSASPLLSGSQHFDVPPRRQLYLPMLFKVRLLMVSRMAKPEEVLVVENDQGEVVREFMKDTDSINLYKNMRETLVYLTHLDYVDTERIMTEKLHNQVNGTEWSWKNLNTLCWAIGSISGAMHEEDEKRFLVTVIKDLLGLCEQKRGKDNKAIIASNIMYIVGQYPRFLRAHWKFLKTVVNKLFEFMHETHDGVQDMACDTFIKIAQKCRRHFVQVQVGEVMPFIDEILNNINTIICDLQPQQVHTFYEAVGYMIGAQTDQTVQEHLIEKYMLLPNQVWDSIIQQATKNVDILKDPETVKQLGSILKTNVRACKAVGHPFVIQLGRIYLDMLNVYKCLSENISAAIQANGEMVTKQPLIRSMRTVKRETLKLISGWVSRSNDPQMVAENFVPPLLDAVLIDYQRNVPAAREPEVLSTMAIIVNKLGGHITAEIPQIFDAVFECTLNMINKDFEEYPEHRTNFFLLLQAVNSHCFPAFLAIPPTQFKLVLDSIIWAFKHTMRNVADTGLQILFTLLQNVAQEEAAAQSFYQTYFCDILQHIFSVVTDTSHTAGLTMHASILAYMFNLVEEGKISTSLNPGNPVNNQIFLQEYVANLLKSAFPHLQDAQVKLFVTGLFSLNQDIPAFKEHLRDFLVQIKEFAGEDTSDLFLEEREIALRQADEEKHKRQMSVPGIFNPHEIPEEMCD

SMILES | AUC(0-t) [1] | Cmax [1] | MRT [1] | Tmax [1] | half-life [1] | IC50 [2, 4] | Tumor volume D1 (BxPC-3 xenografts) | average body weight D1 (BxPC-3 xenografts) | TGI (tumor growth inhibition) (BxPC-3 xenografts) | Tumor volume D21 (BxPC-3 xenografts) | average body weight D21 (BxPC-3 xenografts) | T/C (BxPC-3 xenografts) | IC50 [3, 5] | solubility at 3 days (Aqueous solubility assay; [6]) | solubility at 3 days (Aqueous solubility assay; [7]) | IC50 (CRM1) | RTV (relative tumor volume, Vt/V0) (BxPC-3 xenografts) | other results
O=C(/C=C\n1cnc(-c2cc(C(F)(F)F)cc(C(F)(F)F)c2)n1)NNc1cnccn1 [KPT-330, Selinexor, reference compound] | 2470 ng·h/mL | 325 ng/mL | 6.94 h | 0.5 h | 2.66 h | 0.705 µM | 65.06 ± 6.45 mm^3 | 19.97 g | 77.55% | 151.31 ± 23.90 mm^3 | 19.97 g | 35.02% | 0.458 µM | 6.52 µg/mL (≈ 14.7 µM) | 6.25 µg/mL (≈ 14.1 µM) | – | – | IC50 ([2]; BXPC-3, anti-proliferative assay, read-out: IC50 in BxPC-3 cells): 0.705 µM; IC50 ([3]; MDA-MB-231, anti-proliferative assay, read-out: IC50 in MDA-MB-231 cells): 0.455 µM
O=C(/C=C\n1cnc(-c2cc(C(F)(F)F)cc(C(F)(F)F)c2)n1)NN1CCOCC1=O [Compound 38, (Z)-3-(3-(3,5-bis(trifluoromethyl)phenyl)-1H-1,2,4-triazol-1-yl)-N-(3-oxomorpholino)acrylamide] | 4390 ng·h/mL | 536 ng/mL | 6.67 h | 0.5 h | 4.53 h | 0.283 µM | 65.89 ± 12.63 mm^3 | 19.02 g | 78.20% | 149.62 ± 23.20 mm^3 | 20.80 g | 36.02% | 0.654 µM | 71.4 µg/mL (≈ 159 µM) | 50.4 µg/mL (≈ 112 µM) | < 1000 nM | 2.45* | effect on body weight (in words) (BxPC-3 xenografts; 10 mg/kg, compared to KPT-330): less effect on body weight; anti-tumor growth activity in BxPC-3 xenograft model (in words) (BxPC-3 xenografts): greater efficacy
O=C(/C=C\n1cnc(-c2cc(C(F)(F)F)cc(C(F)(F)F)c2)n1)N1CCC(=O)N1CC1CC1 [Compound 72, (Z)-1-(3-(3-(3,5-bis(trifluoromethyl)phenyl)-1H-1,2,4-triazol-1-yl)acryloyl)-2-(cyclopropylmethyl)pyrazolidin-3-one] | – | – | – | – | – | 0.137 µM | – | – | – | – | – | – | 0.119 µM | 27.4 µg/mL (≈ 58 µM) | 20.9 µg/mL (≈ 44.2 µM) | < 1000 nM | – | –
CN1C(=O)CCN1C(=O)/C=C\n1cnc(-c2cc(C(F)(F)F)cc(C(F)(F)F)c2)n1 [Compound 62, (Z)-1-(3-(3-(3,5-bis(trifluoromethyl)phenyl)-1H-1,2,4-triazol-1-yl)acryloyl)-2-methylpyrazolidin-3-one] | – | – | – | – | – | 0.124 µM | 65.32 ± 6.61 mm^3 | 20.55 g | 77.35% | 152.32 ± 24.78 mm^3 | 21.08 g | 35.10% | 0.186 µM | 220 µg/mL (≈ 508 µM) | 320 µg/mL (≈ 738 µM) | < 1000 nM | 2.33* | –
O=C(/C=C\n1cnc(-c2cc(C(F)(F)F)cc(C(F)(F)F)c2)n1)NN1CCCC1=O [Compound 2, (Z)-3-(3-(3,5-bis(trifluoromethyl)phenyl)-1H-1,2,4-triazol-1-yl)-N-(2-oxopyrrolidin-1-yl)acrylamide] | 2660 ng·h/mL | 502 ng/mL | 6.59 h | 0.5 h | 4.58 h | 0.269 µM | – | – | – | – | – | – | 0.024 µM | 14.6 µg/mL (≈ 33.6 µM) | 11.3 µg/mL (≈ 26.1 µM) | < 1000 nM | – | –
CN1CCC2(CC1)CC(=O)N(NC(=O)/C=C\n1cnc(-c3cc(C(F)(F)F)cc(C(F)(F)F)c3)n1)C2 [Compound 23, (Z)-3-(3-(3,5-bis(trifluoromethyl)phenyl)-1H-1,2,4-triazol-1-yl)-N-(8-methyl-3-oxo-2,8-diazaspiro[4.5]decan-2-yl)acrylamide] | – | – | – | – | – | 0.664 µM | – | – | – | – | – | – | 0.407 µM | 159 µg/mL (≈ 307 µM) | 40.3 µg/mL (≈ 78.1 µM) | < 1000 nM | – | –
COC1=CC(=O)N(NC(=O)/C=C\n2cnc(-c3cc(C(F)(F)F)cc(C(F)(F)F)c3)n2)C1 [Compound 79, (Z)-3-(3-(3,5-bis(trifluoromethyl)phenyl)-1H-1,2,4-triazol-1-yl)-N-(4-methoxy-2-oxo-2,5-dihydro-1H-pyrrol-1-yl)acrylamide] | 3410 ng·h/mL | 440 ng/mL | 5.89 h | 1 h | 3.42 h | 0.204 µM | 66.87 ± 9.13 mm^3 | 20.15 g | 84.37% | 126.90 ± 17.73 mm^3 | 21.30 g | 49.20% | 0.126 µM | 8.54 µg/mL (≈ 18.5 µM) | 7.89 µg/mL (≈ 17.1 µM) | < 1000 nM | 1.63* | anti-tumor growth activity in BxPC-3 xenograft model (in words) (BxPC-3 xenografts): significant anti-tumor growth activity; also recorded: more potent in inhibiting tumor growth
COCCN1C(=O)CCN1C(=O)/C=C\n1cnc(-c2cc(C(F)(F)F)cc(C(F)(F)F)c2)n1 [Compound 71, (Z)-1-(3-(3-(3,5-bis(trifluoromethyl)phenyl)-1H-1,2,4-triazol-1-yl)acryloyl)-2-(2-methoxyethyl)pyrazolidin-3-one] | – | – | – | – | – | 0.586 µM | – | – | – | – | – | – | 0.245 µM | 147 µg/mL (≈ 307 µM) | 229 µg/mL (≈ 479 µM) | < 1000 nM | – | –
